Assay results taken from ChEMBL document CHEMBL6087460, “Generating a Peptide Library Using the Repeats of Amino Acid Scaffolds Created by Sliding the Framework of a 7-mer Human Chemerin Segment and Discovery of Potent Antibacterial and Antimycobacterial Peptides” (J Med Chem, 2025).
Values after ≈ are worked out from the molar mass of the structure shown. Active and inactive are the calls of the source. The calls are words filed in the database; no cut-off is given here.

Experiments:
Pseudomonas aeruginosa = experiment: Antibacterial activity against Pseudomonas aeruginosa ATCC BAA-427 incubated for 16 to 18 hrs by broth dilution assay; format: functional; conditions: time 16-18 hrs
[1] = Hemolytic activity in human RBC assessed as disruption of membrane integrity by Alexa Fluor-Annexin V staining based analysis; format: toxicity, cell-based; conditions: erythrocyte
Staphylococcus aureus [2] = experiment: Bactericidal activity against Staphylococcus aureus ATCC 25923 at MIC incubated for 60 mins by time kill assay; format: functional, organism-based
Escherichia coli [3] = experiment: Bactericidal activity against Escherichia coli ATCC 25922 incubated for 16 to 18 hrs; format: functional; conditions: time 16-18 hrs
Escherichia coli [4] = experiment: Disruption of membrane integrity in Escherichia coli ATCC 25922 by PI staining based analysis; format: functional, organism-based
Escherichia coli [5] = experiment: Disruption of plasma membrane integrity in Escherichia coli ATCC 25922 by SYTOX-Green uptake assay; format: functional, organism-based
Escherichia coli [6] = experiment: Antibacterial activity against Escherichia coli ATCC 25922 incubated for 16 to 18 hrs in presence of 10 percent human serum by broth dilution assay; format: functional; conditions: time 16-18 hrs
Staphylococcus aureus [7] = experiment: Antibacterial activity against methicillin-resistant Staphylococcus aureus 33591 incubated for 16 to 18 hrs by broth dilution assay; format: functional; conditions: time 16-18 hrs
3T3-L1 = experiment: Cytotoxicity against mouse 3T3-L1 cells assessed as cell viability at 100 uM incubated for 24 hrs by MTT assay relative to control; format: toxicity, cell-based; conditions: 3t3-l1, 24 h, 100 µM
Staphylococcus aureus [8] = experiment: Antibacterial activity against methicillin-resistant Staphylococcus aureus BAA-44 incubated for 16 to 18 hrs by broth dilution assay; format: functional; conditions: time 16-18 hrs
Bacillus subtilis = experiment: Antibacterial activity against Bacillus subtilis 6633 incubated for 16 to 18 hrs by broth dilution assay; format: functional; conditions: time 16-18 hrs
Staphylococcus aureus [9] = experiment: Disruption of membrane integrity in Staphylococcus aureus ATCC 25923 by PI staining based analysis; format: functional, organism-based
[10] = Hemolytic activity in human RBC at 100 uM measured after 40 mins by absorbance based assay relative to control; format: toxicity, cell-based, Erythrocyte
Klebsiella pneumoniae = experiment: Antibacterial activity against Klebsiella pneumoniae ATCC 27736 incubated for 16 to 18 hrs by broth dilution assay; format: functional; conditions: time 16-18 hrs
Escherichia coli [11] = experiment: Induction of membrane depolarization in Escherichia coli ATCC 25922 by diSC3-5 dye based analysis; format: functional, organism-based
[12] = system: Mycolicibacterium smegmatis; experiment: Antitubercular activity against Mycobacterium smegmatis incubated for 24 hrs by rezasurin dye based assay; format: functional
Staphylococcus aureus [13] = experiment: Bactericidal activity against Staphylococcus aureus ATCC 25923 incubated for 16 to 18 hrs; format: functional; conditions: time 16-18 hrs
[14] = Hemolytic activity in human RBC measured after 40 mins by absorbance based assay; format: toxicity, cell-based, Erythrocyte; conditions: human red blood cells
Staphylococcus aureus [15] = experiment: Induction of membrane depolarization in Staphylococcus aureus ATCC 25923 by diSC3-5 dye based analysis; format: functional, organism-based
Staphylococcus aureus [16] = experiment: Antibacterial activity against Staphylococcus aureus ATCC 25923 incubated for 16 to 18 hrs in presence of 10 percent human serum by broth dilution assay; format: functional; conditions: time 16-18 hrs
L6 = experiment: Cytotoxicity against rat L6 cells assessed as cell viability at 100 uM incubated for 24 hrs by MTT assay relative to control; format: toxicity, cell-based; conditions: l6, 24 h, 100 µM
Staphylococcus aureus [17] = experiment: Antibacterial activity against Staphylococcus aureus ATCC 25923 incubated for 16 to 18 hrs by broth dilution assay; format: functional; conditions: time 16-18 hrs
Escherichia coli [18] = experiment: Antibacterial activity against Escherichia coli ATCC 25922 incubated for 16 to 18 hrs by broth dilution assay; format: functional; conditions: time 16-18 hrs
Staphylococcus aureus [19] = experiment: Disruption of plasma membrane integrity in Staphylococcus aureus ATCC 25923 by SYTOX-Green uptake assay; format: functional, organism-based
Escherichia coli [20] = experiment: Bactericidal activity against Escherichia coli ATCC 25922 at MIC incubated for 60 mins by time kill assay; format: functional, organism-based
[21] = Retention time of compound by RP-HPLC method; format: physicochemical
[22] = Toxicity in BALB/c mouse assessed as animal survival at 15 mg/kg, iv administered thrice at 2 hrs interval measured after 7 days; format: organism-based; conditions: in vivo, 168 h, time 7 day
[23] = Stability in 10 percent human serum assessed as compound remaining measured after 60 mins by RP-HPLC analysis; format: ADME, cell-free; conditions: 10% human serum, read-out: Stability
[24] = Toxicity in BALB/c mouse assessed as change in ALT level at 15 mg/kg, iv administered thrice at 2 hrs interval measured after 7 days; format: organism-based; conditions: in vivo, 168 h, time 7 day
Escherichia coli [25] = experiment: Antibacterial activity against Escherichia coli ATCC 25922 infected in BALB/c mouse assessed as bacterial count in spleen at 5 mg/kg, iv administered thrice at 1,3 and 5 hrs post-infection measured after 24 hrs post-last dose (Rvb ~ 1.9 x10^7 CFU/mL); format: functional; conditions: time 29 hrs
Escherichia coli [26] = experiment: Antibacterial activity against Escherichia coli ATCC 25922 infected in BALB/c mouse assessed as bacterial count in kidney at 5 mg/kg, iv administered thrice at 1,3 and 5 hrs post-infection measured after 24 hrs post-last dose (Rvb ~ 1.8 x10^7 CFU/mL); format: functional; conditions: time 29 hrs
Escherichia coli [27] = experiment: Antibacterial activity against Escherichia coli ATCC 25922 infected in BALB/c mouse assessed as bacterial load in blood at 5 mg/kg, iv administered thrice at 1,3 and 5 hrs post-infection measured after 24 hrs post-last dose (Rvb ~ 4 x10^6 CFU/mL); format: functional; conditions: time 29 hrs
[28] = Toxicity in BALB/c mouse infected with Escherichia coli ATCC 25922 assessed as animal survival at 5 mg/kg, iv administered thrice at 1,3 and 5 hrs post-infection measured after 7 days; format: organism-based; conditions: in vivo, 168 h, time 7 day
Escherichia coli [29] = experiment: Antibacterial activity against Escherichia coli ATCC 25922 infected in BALB/c mouse assessed as bacterial count in blood at 5 mg/kg, iv administered thrice at 1,3 and 5 hrs post-infection measured after 24 hrs post-last dose (Rvb ~ 9.6 x10^6 CFU/mL); format: functional; conditions: time 29 hrs
[30] = Toxicity in BALB/c mouse assessed as change in AST level at 15 mg/kg, iv administered thrice at 2 hrs interval measured after 7 days; format: organism-based; conditions: in vivo, 168 h, time 7 day
[31] = Toxicity in BALB/c mouse infected with Escherichia coli ATCC 25922 assessed as animal survival at 2.5 mg/kg, iv administered thrice at 1,3 and 5 hrs post-infection measured after 7 days; format: organism-based; conditions: in vivo, 168 h, time 7 day
Escherichia coli [32] = experiment: Antibacterial activity against Escherichia coli ATCC 25922 infected in BALB/c mouse assessed as bacterial count in liver at 5 mg/kg, iv administered thrice at 1,3 and 5 hrs post-infection measured after 24 hrs post-last dose (Rvb ~ 2.3 x10^7 CFU/mL); format: functional; conditions: time 29 hrs
Staphylococcus aureus [33] = experiment: Induction of resistance development in methicillin-resistant Staphylococcus aureus 33591 assessed as fold increase in MIC at sub-MIC measured after 30 passages relative to control; format: functional
Escherichia coli [34] = experiment: Induction of resistance development in Escherichia coli ATCC 25922 assessed as fold increase in MIC at sub-MIC measured after 30 passages relative to control; format: functional
Staphylococcus aureus [35] = experiment: Induction of resistance development in Staphylococcus aureus ATCC 25923 assessed as fold increase in MIC at sub-MIC measured after 30 passages relative to control; format: functional
Staphylococcus aureus [36] = experiment: Induction of resistance development in methicillin-resistant Staphylococcus aureus BAA-44 assessed as fold increase in MIC at sub-MIC measured after 30 passages relative to control; format: functional

Compound | MIC (Pseudomonas aeruginosa) [µM] | Activity [1] | Activity (Staphylococcus aureus [2]) | MBC (Escherichia coli [3]) [µM] | Activity (Escherichia coli [4]) | Activity (Escherichia coli [5]) | MIC (Escherichia coli [6]) [µM] | MIC (Staphylococcus aureus [7]) [µM] | Activity (3T3-L1) | MIC (Staphylococcus aureus [8]) [µM] | MIC (Bacillus subtilis) [µM] | Activity (Staphylococcus aureus [9]) | MIC (Klebsiella pneumoniae) [µM] | Activity (Escherichia coli [11]) | MIC [12] [µM] | MBC (Staphylococcus aureus [13]) [µM] | HC50 at 40 min [14] [mM] | Activity (Staphylococcus aureus [15]) | MIC (Staphylococcus aureus [17]) [µM] | MIC (Escherichia coli [18]) [µM] | further results
H-RLVRLVRLVRLVRLV-OH | 6.7 | Non-toxic | Active; Exhibited Rapid Kinetics | 6.8 | Active | Active | 6.8 | 3.4 | Toxic | 1.7 | 1.7 | Active | 1.7 | Active | 5 | 3.4 | 0.232 | Active | 1.7 | 1.7 | hemolysis at 40 min, 100 µM ([10]; human red blood cells, read-out: Activity): 20%; MIC (Staphylococcus aureus [16]): 3.4 µM; Activity (L6): Toxic; Activity (Staphylococcus aureus [19]): Active; Activity (Escherichia coli [20]): Active; Exhibited Rapid Kinetics; Retention_time [21]: 20.78 min
H-RLRLRLRLRL-OH | 18.3 | Non-toxic | Active; Exhibited Rapid Kinetics | 4.6 | Active | Active | 4.6 | 18.3 | Toxic | 18.3 | 4.6 | Active | 18.3 | Active | 10 | 9.2 | 1.82 | Active | 4.6 | 2.3 | Activity [22]: Toxic; remaining at 1 h [23]: 70%; Activity [24]: Non-toxic; Activity ([10]; erythrocyte, 40 min, 100 µM): Non-toxic; Activity (Escherichia coli [25]): 6.8 10^4CFU/ml; Activity (Escherichia coli [26]): 2.6 10^4CFU/ml; Activity (Escherichia coli [27]): 7700 CFU/ml; Survival [28]: 80%; Activity (Escherichia coli [29]): 2.4 10^4CFU/ml; Activity [30]: Non-toxic; MIC (Staphylococcus aureus [16]): 9.2 µM; Survival [31]: 20%; Activity (L6): Toxic; Activity (Staphylococcus aureus [19]): Active; Activity (Escherichia coli [20]): Active; Exhibited Rapid Kinetics; Retention_time [21]: 15.27 min; Activity (Escherichia coli [32]): 2.7 10^4CFU/ml
CN(C)[C@@H]1C(O)=C(C(N)=O)C(=O)[C@@]2(O)C(O)=C3C(=O)c4c(O)cccc4[C@@](C)(O)[C@H]3C[C@@H]12 [TETRACYCLINE] | 50 (≈ 22.2 µg/mL) |  |  |  |  |  |  | 100 (≈ 44.4 µg/mL) |  | 100 (≈ 44.4 µg/mL) | 1.6 (≈ 0.711 µg/mL) |  | 3.1 (≈ 1.38 µg/mL) |  |  |  |  |  | 3.1 (≈ 1.38 µg/mL) | 3.1 (≈ 1.38 µg/mL) | fold change (FC) (Staphylococcus aureus [33]): <=64; fold change (FC) (Escherichia coli [34]): 32; fold change (FC) (Staphylococcus aureus [35]): 64; fold change (FC) (Staphylococcus aureus [36]): 128
O=C(O)c1cn(C2CC2)c2cc(N3CCNCC3)c(F)cc2c1=O [CIPROFLOXACIN] | 6.3 (≈ 2.09 µg/mL) |  |  |  |  |  |  | 6.3 (≈ 2.09 µg/mL) |  | 6.3 (≈ 2.09 µg/mL) | 6.3 (≈ 2.09 µg/mL) |  | 0.1 (≈ 0.0331 µg/mL) |  |  |  |  |  | 6.3 (≈ 2.09 µg/mL) | 0.1 (≈ 0.0331 µg/mL) | fold change (FC) (Staphylococcus aureus [33]): 128; fold change (FC) (Escherichia coli [34]): 128; fold change (FC) (Staphylococcus aureus [35]): 128; fold change (FC) (Staphylococcus aureus [36]): 128
